Each structure is given as a SMILES string. Active and inactive are the calls of the source. The rule behind the calls is not given here.

A short description of test [1]: M. tuberculosis growth inhibition, dose response, H37Rv, 7H9 media, purified and synthesized compounds, set 4 (AID 504857). The settings on record: Mycobacterium tuberculosis H37Rv growth in 7H9 media; at 100 µM (top of the series).
Test [2] concerns Mycobacterium tuberculosis H37Rv growth in 7H9 media. The description is as above. The settings on record: for IC50: measured here: M. tuberculosis growth IC50.

Take `Cc1nc(SCC(=O)N(C)c2ccccc2)[nH]c(=O)c1C`: the growth inhibition in test [1] is -2.18% (inactive).

As for `COc1ccc(NC(=O)CSc2nc3ccccc3c(=O)[nH]2)cc1`, the growth inhibition in test [1] was 10.6% (inactive).

In the case of `CCSc1nc(C)c(C)c(=O)[nH]1`, the growth inhibition in test [1] was 1.25% (inactive).

As for `CC1CCN(C(=O)CSc2nc3ccccc3c(=O)[nH]2)CC1`, in test [1], the growth inhibition was 2.61% (inactive).

As a reminder, the IC90 is the point of the concentration-response curve where the effect stands at 90%. As usually defined, the IC50 is the concentration that gives 50% inhibition. Higher therefore signals a need for much substance. With `O=C(CSc1nc2ccccc2c(=O)[nH]1)NCc1ccc(Cl)cc1`, in test [2], the IC90 is 1.27 µM and the half-maximal inhibitory concentration (IC50) was found to be 0.76 µM.

As for `Cc1ccc(C(=O)N/N=C(/CC(=O)c2cccs2)C(F)(F)F)cc1`, in test [2], the 90% effect concentration (IC90) was 2.8 µM and the IC50 was 1.23 µM.

On to `c1ccc(/N=C2\N=C(Nc3ccccn3)c3ccccc32)nc1`, for which, in test [2], the concentration for an effect of 90% (IC90) was 1.36 µM and the half-inhibitory concentration (IC50) was determined as 1.03 µM.

Turning to `Cc1cnc(SCC(=O)NC2CCCCC2)[nH]c1=O`, in test [1], the growth inhibition was 4.36% (inactive).

For `O=C(CSc1nc2ccccc2c(=O)[nH]1)NC1CCCC1`, in test [2], the 90% effect concentration (IC90) is 0.71 µM and the 50% inhibitory concentration (IC50) was found to be 0.24 µM.

In the case of `O=C(CSc1nccc(=O)[nH]1)NC1CCCCC1`, in test [1], the growth inhibition is 6.38% (inactive).

Regarding `CCOC1OC(=O)C(Cl)=C1Nc1ccccc1C` (stereo not drawn), in test [2], the IC90 is 9.91 µM and the IC50 worked out at 3.78 µM.

`Nc1c(C(=O)NC2CCCCC2)nsc1C(=O)OCC(=O)NC1CCCCC1` gave an IC50 in test [2] of 4.42 µM.

In the case of `CCC(Sc1nc2ccccc2c(=O)[nH]1)C(=O)Nc1cccc(OC)c1` (stereo not drawn), the growth inhibition in test [1] is 18.9% (inactive).

As to `COc1cccc(NC(=O)CSc2nc3ccccc3c(=O)[nH]2)c1`, the growth inhibition in test [1] was 7.54% (inactive).

Regarding `CC(C)CCNC(=O)CSc1nc2c(c(=O)[nH]1)CCC2`, in test [2], the IC90 is 1.85 µM and the IC50 stood at 1.14 µM.

`CC1CCN(C(=O)C2CCN(c3nnc(-n4cccc4)s3)CC2)CC1`: in test [2], the IC90 is 4.87 µM and the half-inhibitory concentration (IC50) is 2.79 µM.

`Cc1nc(SCC(=O)NC2CCCC2)[nH]c(=O)c1C`: in test [2], the IC90 was 10.9 µM and the concentration for half-maximal inhibition (IC50) was determined as 6.25 µM.

As to `O=C(CSc1nc2c(c(=O)[nH]1)CCCC2)NC1CCCCC1`, in test [2], the concentration for an effect of 90% (IC90) was below 0.01 µM and the IC50 is below 0.01 µM.

For `CN(C(=O)CSc1nc2ccccc2c(=O)[nH]1)C1CCCCC1`, in test [1], the growth inhibition is 4.85% (inactive).

As to `Cn1c(SCC(=O)NC2CCCCC2)nc2ccccc2c1=O`, in test [1], the growth inhibition was 5.15% (inactive).

Regarding `CCOC(=O)CSc1nc(C)c(C)c(=O)[nH]1`, in test [1], the growth inhibition was 7.45% (inactive).

Turning to `CN1CCC(NC(=O)CSc2nc3ccccc3c(=O)[nH]2)CC1`, in test [1], the growth inhibition is 4.15% (inactive).

For the compound `Cc1cccc(-c2oc3ccc(-c4ccc5c(c4)OCO5)cc3c2C#Cc2cncn2C)c1`, in test [2], the IC90 was 3.13 µM and the half-inhibitory concentration (IC50) is 2.6 µM.

In the case of `CC(Sc1nc2ccccc2c(=O)[nH]1)C(=O)NC1CCCCC1` (stereo not drawn), in test [1], the growth inhibition is 3.48% (inactive).

With `CC[N+](C)(CC)CCCCOc1ccc2c(c1)C(=O)c1cc(OCCCC[N+](C)(CC)CC)ccc1-2`, in test [2], the 90% effect concentration (IC90) was 3.3 µM and the IC50 turned out to be 2.47 µM.

Take `COC(=O)C(C)Oc1ccc(Cc2ncc(C(F)(F)F)cc2Cl)cc1` (stereo not drawn): in test [2], the concentration for an effect of 90% (IC90) was 7.11 µM and the 50% inhibitory concentration (IC50) was 4.4 µM.

Consider `Cc1ccc(NC(=O)CSc2nc3ccccc3c(=O)[nH]2)cc1Cl`, for which the growth inhibition in test [1] is 0.04% (inactive).

In the case of `Cc1cccc(/C=C/C(=O)c2ccc([N+](=O)[O-])o2)c1`, in test [2], the IC90 was 1.12 µM and the IC50 came out at 0.67 µM.

Regarding `Cc1nc(SCc2ccccc2Cl)[nH]c(=O)c1C`, the growth inhibition in test [1] was -1.2% (inactive).

As for `O=c1[nH]c(=S)[nH]c2ccccc12`, in test [1], the growth inhibition was -2.47% (inactive).

As to `COC(=O)C(Nc1nc(SCC(=O)NC2CCCCC2)nc2ccccc12)c1ccccc1` (stereo not drawn), in test [1], the growth inhibition was 0.63% (inactive).

Consider `Cc1cc(=O)[nH]c(SCC(=O)NC2CCCCC2)n1`, for which the growth inhibition in test [1] was -5.77% (inactive).

For the compound `O=c1[nH]c(SCc2ccccc2Cl)nc2c1CCCC2`, the growth inhibition in test [1] was 9.36% (inactive).

Regarding `COc1cccc(NC(=O)CSc2nc3c(c(=O)[nH]2)CCC3)c1`, the growth inhibition in test [1] was -2.55% (inactive).

For `CCC(Sc1nc2c(c(=O)[nH]1)CCC2)C(=O)Nc1cccc(OC)c1` (stereo not drawn), the growth inhibition in test [1] is -2.13% (inactive).

As to `CC(C)NC(=O)CSc1nc2ccccc2c(=O)[nH]1`, in test [2], the IC90 is 15.2 µM and the IC50 amounted to 10.3 µM.

With `O=C(CSc1nc2ccccc2c(=O)[nH]1)NC1CCCCC1`, in test [2], the IC90 was 0.4 µM and the IC50 was determined as 0.25 µM.

`CCOc1ccc(-c2cc(C)[n+](CCc3ccc(OC)c(OC)c3)c(-c3ccc(OCC)cc3)c2)cc1`: in test [2], the IC90 was 1.11 µM and the half-inhibitory concentration (IC50) is 0.77 µM.

Consider `O=C(CSc1ccccn1)NC1CCCCC1`, for which the growth inhibition in test [1] was 5.02% (inactive).

In the case of `Cc1ccc(NC(=O)COC(=O)CCc2c[nH]c3ccccc23)cc1[N+](=O)[O-]`, in test [2], the IC90 was 4.68 µM and the concentration for half-maximal inhibition (IC50) worked out at 2.55 µM.

For `CNC(=O)CSc1nc2ccccc2c(=O)[nH]1`, in test [2], the IC90 is 89.8 µM and the IC50 turned out to be 54.8 µM.

Regarding `CCC(Sc1nc2ccccc2c(=O)[nH]1)C(=O)NC1CCCCC1` (stereo not drawn), in test [1], the growth inhibition is 0.65% (inactive).

Consider `Cc1[nH]c(=S)[nH]c(=O)c1C`, for which, in test [1], the growth inhibition is 3.68% (inactive).

`Nc1cc(=O)[nH]c(SCC(=O)NC2CCCCC2)n1`: the growth inhibition in test [1] was -0.79% (inactive).

In the case of `CN(C)C(=O)CSc1nc2ccccc2c(=O)[nH]1`, the growth inhibition in test [1] was 10.3% (inactive).

Take `CCSc1nc2ccccc2c(=O)[nH]1`: the growth inhibition in test [1] is 2.57% (inactive).

With `NC(=O)CSc1nc2ccccc2c(=O)[nH]1`, the growth inhibition in test [1] was 5.87% (inactive).

Regarding `Cc1cc(C)n2nc(N)c(N=Nc3ccccc3)c2n1`, in test [2], the IC90 is 6.31 µM and the concentration for half-maximal inhibition (IC50) is 4.72 µM.

With `Cc1cc(=O)[nH]c(=S)[nH]1`, the growth inhibition in test [1] was -3.77% (inactive).

As for `CC(C)CCNC(=O)CSc1nc2ccccc2c(=O)[nH]1`, in test [2], the 90% effect concentration (IC90) is 0.02 µM and the IC50 was below 0.01 µM.

For `COC(=O)c1ccc(CNc2c(N3CCCC3)c(=O)c2=O)cc1`, the growth inhibition in test [1] is 1.55% (inactive).

For `Cc1[nH]c2ccccc2c1C(=O)COC(=O)c1ccc([N+](=O)[O-])s1`, in test [2], the concentration for an effect of 90% (IC90) was 2.93 µM and the 50% inhibitory concentration (IC50) was 1.69 µM.

With `Cc1nc(SCC(=O)NCCC(C)C)[nH]c(=O)c1C`, in test [2], the IC90 was 9.97 µM and the half-maximal inhibitory concentration (IC50) was found to be 5.78 µM.

In the case of `Cc1cc(Br)ccc1NC(=O)c1cnc(N2CCN(c3ccccn3)CC2)c2ccccc12`, in test [2], the 90% effect concentration (IC90) is 35 µM and the IC50 came to 1.03 µM.

Take `O=C(CSc1nc2ccccc2c(=O)[nH]1)N1CCOCC1`: the growth inhibition in test [1] was 6.76% (inactive).

As to `O=C(CSc1ncccn1)NC1CCCCC1`, in test [1], the growth inhibition was -3.06% (inactive).

`O=C(CSc1nc2c(c(=O)[nH]1)CCC2)NC1CCCCC1`: in test [2], the concentration for an effect of 90% (IC90) was below 0.01 µM and the IC50 was below 0.01 µM.

With `Cc1c[nH]c(=S)[nH]c1=O`, the growth inhibition in test [1] was 2.29% (inactive).

On to `Cc1nc(SCC(N)=O)[nH]c(=O)c1C`, for which the growth inhibition in test [1] is 3.13% (inactive).

The values above are taken from PubChem BioAssay AID504857 (Southern Research Specialized Biocontainment Screening …, 2011).
